Measurements reported in BigSolDB 2.1.

O=C(O)c1cccc(C(=O)O)c1
solubility (mole fraction)
Settings | 283.15 K | 288.15 K | 293.15 K | 298.15 K | 303.15 K | 308.15 K | 313.15 K | 318.15 K | 323.15 K
in ethanol | 0.00328 | 0.00369 | 0.00406 | 0.00451 | 0.005 | 0.00559 | 0.00616 | 0.00682 | 0.00752
in methanol | 0.00269 | 0.00304 | 0.00342 | 0.00376 | 0.00422 | 0.00473 | 0.00527 | 0.0059 | 0.00654
in n-propanol | 0.00287 | 0.0032 | 0.00362 | 0.00415 | 0.00472 | 0.00533 | 0.00603 | 0.00689 | 0.00774
